Experimental data published in patent publication US20030045679A1, “Calcineurin modulators” (priority 2001, published 2003).
Read-outs that look alike come from different tables or passages of the source.

What was measured:
[1] = Cytotoxicity of A23187 and hydrogen peroxide on stable transfectants, propidium iodide uptake by flow cytometry; settings: Chinese hamster, Percent cytotoxicity, 4 μg/ml A23187
Procedure: (§1) MATERIAL AND METHODS: Cell culture and treatment conditions. Chinese hamster HA-1 fibroblasts were maintained in Eagle's minimal essential medium supplemented with 8% heat inactivated fetal bovine serum, penicillin (100 units/ml) and streptomycin (100μg/ml). Cultures were grown in a humidified incubator atmosphere of 95% air and 5% CO2 at 37 °C.
(§2) Stress analyses. Control cells and lines 7, 10, and 15 were grown to log phase and equal confluency (75%). At this time, the cells were exposed to each stress agent and cytotoxicity measured. For the oxidative stress studies, a stock solution of hydrogen peroxide (30% w/w) was diluted in phosphate-buffered saline just prior to cell exposure. At the time of treatment, the HA-1 cultures were taken from the incubator and freshly diluted-peroxide added to the culture dishes. The cells were then returned to the incubator for the appropriate times.
(§3) Stable adapt78-overexpressing, vector control and non-transfected control HA-1 cells were exposed to 4 μg/ml calcium ionophore A23187 or […] for 60 minutes (A23187) or 90 minutes (hydrogen peroxide). Cytotoxicity was then determined by propidium iodide uptake using flow cytometry as follows. After treatment, monolayers were rinsed with PBS containing 3 mM EDTA, then covered with the same for 5 minutes at room temperature before suspending cells by gentle trituration. Cytotoxicity was then measured using propidium iodide and the stained cells analyzed by flow cytometry using a Becton Dickinson FAC Scan. The ModFit analytical software program was used to quantify the percentage of cytotoxicity.
(§4) Control cells and lines 7, 10, and 15 were grown to log phase and equal confluency (75%), then treated with 4 μg/ml A23187 and separately, 5 mM hydrogen peroxide. Cytotoxicity was then assessed by propidium iodide uptake using flow cytometry. Fold protection was calculated as the percent viability of cells compared with untransfected after subtracting out background (cells treated with solvent only). The average of untransfected percent viability was arbitrarily set at 1.0.

[2] = tested on: HA-1 cells; assay: as above; settings: n = 4
Procedure: as §1, §2, §3, §4

[3] = tested on: HA-1 cells; settings: stained 7 days later, cited from earlier work
[4] = tested on: HA-1 cells; settings: 160 μM hydrogen peroxide; cited from earlier work

SMILES: CNc1ccc2oc(C[C@H]3O[C@@]4(CC[C@H]3C)O[C@H]([C@H](C)C(=O)c3ccc[nH]3)[C@H](C)C[C@H]4C)nc2c1C(=O)O [A23187]
- cytotoxicity at 60 min, 4 μg/ml ([1]; Untransfected HA-1 cells): 48.2%
- cytotoxicity at 60 min, 4 μg/ml ([1]; Vector transfected HA-1 cells): 44%
- cytotoxicity at 60 min, 4 μg/ml ([1]; adapt78 overexpressing Clone 7): 10.1%
- cytotoxicity at 60 min, 4 μg/ml ([1]; adapt78 overexpressing Clone 10): 11.7%
- cytotoxicity at 60 min, 4 μg/ml ([1]; adapt78 overexpressing Clone 15): 11.8%
- Fold protection +/− 1 S.D. ([2]; 4 μg/ml A23187, Clone 7 vs Untransfected): 4.8 +/− 0.5 fold
- Fold protection +/− 1 S.D. ([2]; 4 μg/ml A23187, Clone 10 vs Untransfected): 4.1 +/− 1.0 fold
- Fold protection +/− 1 S.D. ([2]; 4 μg/ml A23187, Clone 15 vs Untransfected): 4.1 +/− 0.3 fold
- Fold protection +/− 1 S.D. ([2]; 4 μg/ml A23187, Untransfected HA-1 cells (set at 1.0)): 1.0 +/− 0.4 fold
- Fold protection +/− 1 S.D. ([2]; 4 μg/ml A23187, Vector transfected HA-1 cells vs Untransfected): 1.1 +/− 0.3 fold

SMILES: OO [Peroxide, hydrogen peroxide]
- Fold protection +/− 1 S.D. ([2]; 5 mM hydrogen peroxide, Clone 10 vs Untransfected): 3.7 +/− 0.6 fold
- Fold protection +/− 1 S.D. ([2]; 5 mM hydrogen peroxide, Clone 15 vs Untransfected): 4.2 +/− 0.6 fold
- Fold protection +/− 1 S.D. ([2]; 5 mM hydrogen peroxide, Untransfected HA-1 cells (set at 1.0)): 1.0 +/− 0.3 fold
- Fold protection +/− 1 S.D. ([2]; 5 mM hydrogen peroxide, Vector transfected HA-1 cells vs Untransfected): 1.0 +/− 0.4 fold
- decrease in colony number compared with control ([3]; 160 μM hydrogen peroxide for 5 hours): 79.5%
- decrease in colony number compared with control ([3]; 400 μM hydrogen peroxide for 5 hours): 97.8%
- cytotoxicity using trypan blue exclusion [4]: no associated cytotoxicity was observed
